The source of these data is US12528792B2, “Sulfonamide compounds and the use thereof in the treatment of cancer” (TROBIO THERAPEUTICS PTY LTD, priority 2019, dated 2026).

Molecules are shown by their SMILES. A value given as a limit tells only on which side of the number the result lay.

Common to all, as to type: cell-based
The test system of assay [1] is SK-N-SH neuroblastoma cells. Nature of the assay: Cytotoxicity assay, MTS viability. Particulars: Homo sapiens, 72 hours. The procedure:
The ability of compounds of the disclosure to inhibit the proliferation of SK—N—SH neuroblastoma cells was assessed. The SK—N—SH cell line was maintained as a monolayer in Dulbeccos Modified Eagles medium (DMEM) supplemented with 10% foetal bovine serum (FBS) and grown at 37° C. in a humidified atmosphere with 5% CO2. For the cytotoxicity assay, SK—N—SH cells were seeded at a density of 2×10^3 cells per well in 96-well plates. The cells were treated with serial dilutions of the test compounds (1:2 starting concentration 100 µM) and viability measured after 72 hours using a standard MTS assay. Cell viability was normalised to control (vehicle alone) and dose response curves and EC50 values (Table 3) were determined using Graph Pad Prism 6.

The test system of the next assay is A549 (NSCLC) cells. In words: Anti-proliferative activity, Cell-Titre luminescent viability assay. The note with it: Homo sapiens, 72 h exposure, Cell-Titre luminescent reagent. The procedure, abridged:
(§1)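 Cells attached 24 h at 37° C., 5% CO2, then treated 72 h with compound at 0.3–100 μM or 0.1–30 μM. Viability read by Cell-Titre luminescence after 30 min reagent exposure, normalized to vehicle; EC50 from variable-slope sigmoidal nonlinear regression.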

Another assay concerns A2780 (ovarian) cells. The assay is described as above. The note with it: Homo sapiens, 72 h exposure, Cell-Titre luminescent reagent. Summed up:
as §1

On to `CCC(C)c1ccc(NC(=O)C2CCN(S(=O)(=O)c3ccn(C)c3)CC2)cc1` (stereo not drawn) [Compound 28, N-(4-(sec-butyl)phenyl)-1-((1-methyl-1H-pyrrol-3-yl)sulfonyl)piperidine-4-carboxamide], for which the concentration for half-maximal inhibition (IC50) in assay [1] stood at 11.7 µM; with A549 (NSCLC) cells, 13 µM; in the assay on A2780 (ovarian) cells it was 24.7 µM.
As to `O=C(Nc1ccc(C(F)(F)F)cc1)c1ccn(S(=O)(=O)c2ccc3c(c2)CCN3)c1` [Compound 23, 1-(indolin-5-ylsulfonyl)-N-(4-(trifluoromethyl)phenyl)-1H-pyrrole-3-carboxamide], the IC50 turned out to be 12.8 µM in assay [1], 11.6 µM with A549 (NSCLC) cells and 5.3 µM with A2780 (ovarian) cells.
On to `Cc1ccc(NC(=O)c2ccn(S(=O)(=O)c3ccc4[nH]ccc4c3)c2)cc1O` [Compound 25, 1-((1H-indol-5-yl)sulfonyl)-N-(3-hydroxy-4-methylphenyl)-1H-pyrrole-3-carboxamide], for which the results for the half-inhibitory concentration (IC50) (in assay [1]; with A549 (NSCLC) cells; with A2780 (ovarian) cells) were 30 µM, greater than 100 µM and greater than 100 µM, respectively.
As to `CCC(C)c1ccc(NC(=O)N2CCN(S(=O)(=O)c3ccc4[nH]ccc4c3)CC2)cc1` (stereo not drawn) [Compound 15, 4-((1H-indol-5-yl)sulfonyl)-N-(4-(sec-butyl)phenyl)piperazine-1-carboxamide], the IC50 in assay [1] turned out to be 14.9 µM; in the assay on A549 (NSCLC) cells, 25.8 µM; in the assay on A2780 (ovarian) cells, 22.3 µM.
Turning to `Cn1cc(S(=O)(=O)N2CCN(C(=O)Nc3ccc(C(F)(F)F)cc3)CC2)cc1C(N)=O` [Compound 11, 4-((5-carbamoyl-1-methyl-1H-pyrrol-3-yl)sulfonyl)-N-(4-(trifluoromethyl)phenyl)piperazine-1-carboxamide], the 50% inhibitory concentration (IC50) in assay [1] was greater than 100 µM; with A549 (NSCLC) cells, greater than 100 µM; in the assay with A2780 (ovarian) cells, 48.4 µM.
Consider `O=C(Nc1ccc(Cl)c(Cl)c1)c1ccn(S(=O)(=O)c2ccc3[nH]ccc3c2)c1` [Compound 71, 1-((1H-indol-5-yl)sulfonyl)-N-(3,4-dichlorophenyl)-1H-pyrrole-3-carboxamide], for which the 50% inhibitory concentration (IC50) in assay [1] came out at 8.9 µM; in the assay on A549 (NSCLC) cells, 9.28 µM; in the assay on A2780 (ovarian) cells, 7.49 µM.
On the same counts, the results for `O=C(Nc1cccc(C(F)(F)F)c1)C1CCN(S(=O)(=O)c2ccc3[nH]ccc3c2)CC1` [Compound 63, 1-((1H-indol-5-yl)sulfonyl)-N-(3-(trifluoromethyl)phenyl) piperidine-4-carboxamide] are 13.5 µM, 12.6 µM and 10.9 µM.
On the same counts, the results for `Cc1cccc(NC(=O)c2ccn(S(=O)(=O)c3ccc4[nH]ccc4c3)c2)c1` [Compound 44, 1-((1H-indol-5-yl)sulfonyl)-N-(m-tolyl)-1H-pyrrole-3-carboxamide] are 15.2 µM, 8.7 µM and 2.5 µM.
On the same counts, the results for `CCC(C)c1ccc(NC(=O)c2ccn(S(=O)(=O)c3ccc4[nH]c(C)cc4c3)c2)cc1` (stereo not drawn) [Compound 57, N-(4-(sec-butyl)phenyl)-1-((2-methyl-1H-indol-5-yl)sulfonyl)-1H-pyrrole-3-carboxamide] are 7.22 µM, 3.9 µM and 3.9 µM.
For the compound `CCC(C)c1ccc(NC(=O)c2ccn(S(=O)(=O)c3cc(C(N)=O)n(C)c3)c2)cc1` (stereo not drawn) [Compound 18, 4-((3-((4-(sec-butyl)phenyl)carbamoyl)-1H-pyrrol-1-yl)sulfonyl)-1-methyl-1H-pyrrole-2-carboxamide], the IC50 was 22.3 µM in assay [1], 27.6 µM with A549 (NSCLC) cells and 6.8 µM in the assay with A2780 (ovarian) cells.
For the compound `O=C(Nc1ccc(C(F)(F)F)cc1)N1CCN(S(=O)(=O)c2ccc3[nH]ccc3c2)CC1` [Compound 17, 4-((1H-indol-5-yl)sulfonyl)-N-(4-(trifluoromethyl)phenyl)piperazine-1-carboxamide], the concentration for half-maximal inhibition (IC50) in assay [1] was determined as 22.9 µM; in the assay with A549 (NSCLC) cells, 6.5 µM; with A2780 (ovarian) cells it was 13.9 µM.
On the same counts, the results for `CCC(C)c1ccc(NC(=O)c2ccn(S(=O)(=O)c3cnc4[nH]ccc4c3)c2)cc1` (stereo not drawn) [Compound 60, 1-((1H-pyrrolo[2,3-b]pyridin-5-yl)sulfonyl)-N-(4-(sec-butyl)phenyl)-1H-pyrrole-3-carboxamide] are 13.2 µM, 3.9 µM and 3.8 µM.
As for `CC(C)(C)c1ccc(S(=O)(=O)n2ccc(C(=O)NCCc3ccc(F)cc3)c2)cc1` [Compound 89, 1-((4-(tert-butyl)phenyl)sulfonyl)-N-(4-fluorophenethyl)-1H-pyrrole-3-carboxamide], the IC50 in assay [1] is 15.6 µM; in the assay on A549 (NSCLC) cells, 6.7 µM; in the assay with A2780 (ovarian) cells, 2.8 µM.
On the same counts, the results for `O=C(Nc1ccc(Cl)c(Cl)c1)c1ccn(S(=O)(=O)c2ccc3[nH]ccc3c2)n1` [Compound 83, 1-((1H-indol-5-yl)sulfonyl)-N-(3,4-dichlorophenyl)-1H-pyrazole-3-carboxamide] are 13.1 µM, 14.3 µM and 9.31 µM.
On to `CC(C)(C)c1ccc(S(=O)(=O)n2ccc(C(=O)Nc3ccc(F)cc3)c2)cc1` [Compound 92, 1-((4-(tert-butyl)phenyl)sulfonyl)-N-(4-fluorophenyl)-1H-pyrrole-3-carboxamide], for which the values for the IC50 (in assay [1]; with A549 (NSCLC) cells; in the assay on A2780 (ovarian) cells) were 16.6 µM, 17.3 µM and 4 µM, respectively.
Turning to `CC(C)c1ccc(NC(=O)c2ccn(S(=O)(=O)c3ccc4[nH]ccc4c3)n2)cc1` [Compound 107, 1-((1H-indol-5-yl)sulfonyl)-N-(4-isopropylphenyl)-1H-pyrazole-3-carboxamide], the figures for the half-maximal inhibitory concentration (IC50) (in assay [1]; in the assay on A549 (NSCLC) cells; with A2780 (ovarian) cells) were 6.22 µM, 6.58 µM and 8.11 µM, respectively.
On the same counts, the results for `CCCc1ccc(NC(=O)c2ccn(S(=O)(=O)c3ccc4[nH]ccc4c3)c2)cc1` [Compound 96, 1-((1H-indol-5-yl)sulfonyl)-N-(4-propylphenyl)-1H-pyrrole-3-carboxamide] are 12.2 µM, 12.8 µM and 8.85 µM.
On the same counts, the results for `CCc1cccc(NC(=O)c2ccn(S(=O)(=O)c3ccc4[nH]ccc4c3)c2)c1` [Compound 41, 1-((1H-indol-5-yl)sulfonyl)-N-(3-ethylphenyl)-1H-pyrrole-3-carboxamide] are 16.2 µM, 12.8 µM and 1.1 µM.
Turning to `CCC(C)c1ccc(NC(=O)c2ccn(S(=O)(=O)c3ccc4[nH]cc(C)c4c3)c2)cc1` (stereo not drawn) [Compound 58, N-(4-(sec-butyl)phenyl)-1-((3-methyl-1H-indol-5-yl)sulfonyl)-1H-pyrrole-3-carboxamide], the results for the IC50 (in assay [1]; in the assay with A549 (NSCLC) cells; in the assay on A2780 (ovarian) cells) were 14 µM, 3.8 µM and 2.1 µM, respectively.
On the same counts, the results for `O=C(Nc1ccc(C(F)(F)F)cc1)c1ccn(S(=O)(=O)c2ccc3[nH]ccc3c2)n1` [Compound 78, 1-((1H-indol-5-yl)sulfonyl)-N-(4-(trifluoromethyl)phenyl)-1H-pyrazole-3-carboxamide] are 21.6 µM, 18.4 µM and 5.44 µM.
On the same counts, the results for `CC(C)(C)c1ccc(NC(=O)c2ccn(S(=O)(=O)c3ccc4[nH]ccc4c3)n2)cc1` [Compound 113, 1-((1H-indol-5-yl)sulfonyl)-N-(4-(tert-butyl)phenyl)-1H-pyrazole-3-carboxamide] are 9.41 µM, 7.22 µM and 8.37 µM.
On the same counts, the results for `CCC(C)c1ccc(NC(=O)C2CCN(S(=O)(=O)c3ccc4c(c3)CCN4)CC2)cc1` (stereo not drawn) [Compound 3, N-(4-(sec-butyl)phenyl)-1-(indolin-5-ylsulfonyl) piperidine-4-carboxamide] are 19.3 µM, 19.9 µM and greater than 100 µM.
For `O=C(Nc1ccccc1F)c1ccn(S(=O)(=O)c2ccc3[nH]ccc3c2)c1` [Compound 50, 1-((1H-indol-5-yl)sulfonyl)-N-(2-fluorophenyl)-1H-pyrrole-3-carboxamide], the IC50 turned out to be 11.5 µM in assay [1], 4 µM in the assay with A549 (NSCLC) cells and 1.8 µM with A2780 (ovarian) cells.
On the same counts, the results for `CCC(C)c1ccc(NC(=O)c2ccn(S(=O)(=O)c3ccc4[nH]c(C)c(C)c4c3)c2)cc1` (stereo not drawn) [Compound 59, N-(4-(sec-butyl)phenyl)-1-((2,3-dimethyl-1H-indol-5-yl)sulfonyl)-1H-pyrrole-3-carboxamide] are 10.3 µM, 6.2 µM and 4.6 µM.
On the same counts, the results for `CCC(C)c1ccc(CCC2CCN(S(=O)(=O)c3cc(C(N)=O)n(C)c3)CC2)cc1` (stereo not drawn) [Compound 34, 4-((4-(4-(sec-butyl)phenethyl)piperidin-1-yl)sulfonyl)-1-methyl-1H-pyrrole-2-carboxamide] are 46.2 µM, 3.2 µM and 5.4 µM.
On the same counts, the results for `CCC(C)c1ccc(NC(=O)C2CCN(S(=O)(=O)c3ccc4cc[nH]c4n3)CC2)cc1` (stereo not drawn) [Compound 65, 1-((1H-pyrrolo[2,3-b]pyridin-6-yl)sulfonyl)-N-(4-(sec-butyl)phenyl) piperidine-4-carboxamide] are 12.5 µM, 16.2 µM and 22.3 µM.
Take `Cn1cc(S(=O)(=O)N2CCC(C(=O)Nc3ccc(C(F)(F)F)cc3)CC2)cc1C(N)=O` [Compound 2, 1-((5-carbamoyl-1-methyl-1H-pyrrol-3-yl)sulfonyl)-N-(4-(trifluoromethyl)phenyl)piperidine-4-carboxamide]: the half-inhibitory concentration (IC50) is 26.4 µM in assay [1], 33.7 µM with A549 (NSCLC) cells and 13.9 µM in the assay on A2780 (ovarian) cells.

For orientation: IC50 means the concentration that inhibits the measured activity by half. A high value points to lower potency.
